Results from patent US11472752B2, “Method for making resistant to thiodicarb (carbamate) and bifenthrin (pyrethroid) a consortium of fungi that solubilise phosphorous and antagonise certain pathogens, for use in liquid biofertilisers for foliar and/or soil application” (priority 2018, dated 2022).

Experiments:
Experiment in all cases: Stagewise adaptation on growth media poisoned with thiodicarb or bifenthrin; mortality rate
Assay type in all cases: cell-based
[1] = test system: Paecilomyces sp.
Description: Strains of sulphur sulubilizer fungi, antagonist to some pathogens: • a) Paecilomyces sp. • b) Beauveria bassiana • c) Trichoderma harzianum • d) Metarhizium anisopliae Preparation for Stage Development 1. Glass material is sterilized in an autoclave. 2. The required amount of growth media is prepared with 3% rice broth (P/V), and 9% of a solution of molasses, sterilized at 121° C. for 15 minutes at a pressure of 15 lb. 3. Lethal dose (LD) applied to a hectare is established, for thiodicarb as well as bifenthrin. 10 Petri dishes are prepared with 0.1 LD of thiodicarb of bifenthrin. Dishes are incubated at 25° C. for 72 hours with cold light. 4. […] The process is monitored controlling the variables, mainly the pH and biomass concentration, adjusting the pH to 5.5 during the entire process. […] Inoculated dishes are incubated for 15 days, the product concentration impact is determined on mycelial growth, sporulation and germination (12 hours of incubation). e. […] The spore concentration is measured in a Newbawer Chamber and the results are reported in conidia per square millimeter. i. […]
(§1) For each species, stages analyzing times required to cover the entire field were performed. Once this time was determined, they were left to rest for 10 days to be later subject to the following protocol: […]

[2] = test system: Beauveria bassiana; settings: for Resistant to: FINAL: final characteristics after selective process
Description: (§2) Strains of sulphur sulubilizer fungi, antagonist to some pathogens: • a) Paecilomyces sp. • b) Beauveria bassiana • c) Trichoderma harzianum • d) Metarhizium anisopliae Preparation for Stage Development 1. Glass material is sterilized in an autoclave. 2. The required amount of growth media is prepared with 3% rice broth (P/V), and 9% of a solution of molasses, sterilized at 121° C. for 15 minutes at a pressure of 15 lb. 3. Lethal dose (LD) applied to a hectare is established, for thiodicarb as well as bifenthrin. 10 Petri dishes are prepared with 0.1 LD of thiodicarb of bifenthrin. Dishes are incubated at 25° C. for 72 hours with cold light. 4. From the previous suspension with a known concentration, (107) the growth media is seeded with 1 ml, the pH adjustment is performed at 5.5 with a sterile 10 citric acid solution. 5. Stir at 110 rpm and 27 OC for 7 days. 6. The process is monitored controlling the variables, mainly the pH and biomass concentration, adjusting the pH to 5.5 during the entire process. 7. On the fourth day of the process, the foam formation is controlled with 1% soy oil and the stirring speed. Methodology a. Petri dishes are placed inside the laminar flow chamber along with the diluted samples, to seed microorganisms in the dishes, a one ml sample of the strain is taken with an automated pipette, 10^−1 and 10^−2 solutions are performed, and each solution is homogenized. b. Having the petri dishes with the sterile and cold growth media, it is homogenized with 6 right to left movements, 6 clockwise movements, 6 counterclockwise movements and 6 front to back movements over a flat horizontal surface until the inoculum is completely integrated into the media, stand until it solidifies and each dish is covered with parafilm to avoid contamination during incubation. c. Dishes with thiodicarb and Bifenthrin are placed inside the incubator at 25° C. for 72 hours with a cold light lamp. d. Inoculated dishes are incubated for 15 days, the product concentration impact is determined on mycelial growth, sporulation and germination (12 hours of incubation). e. The residual impact of the product is reviewed after 7 days in the malt agar, dextrose and PDA agar media, enriched with minerals. f. If there is no growth over 10%, the process is repeated until a mortality under 90% is obtained. g. […] After that, the suspension is stirred for 30 seconds in a Vortex tube mixer. The spore concentration is measured in a Newbawer Chamber and the results are reported in conidia per […]. i. From the 10 Petri dishes for each microorganism, the one with the lowest mortality rate is the one that will continue with the following study. j. The study is performed again using this percentage until coverage increases and so on, the addition of thiodicarb and bifenthrin is alternated with the LD in intervals of 0.1 LD; all these experiments have been designed with the experimental strains and a control. k. With the data obtained from the mycelial growth and sporulation, the percentage of inhibition of gradual growth is obtained, the data is transformed for its analysis with the expression 2 arc sin, and the sporulation through the equation Log 10(x+10). A two-way classification analysis of variance is applied and later the Turkey test is performed using a 5% probability.
(§3) For each species, stages analyzing times required to cover the entire field were performed. Once this time was determined, they were left to rest for 10 days to be later subject to the following protocol:
Stages begin with the conditions in its natural habitat: pH—7.0 a 7.5, Humidity: 30 to 40% and humidity is increased up to 70% and a Temperature from 28 to 30° C., maintained during all the research term. These conditions are the starting point to adapt the strain to thiodicarb (carbamate) and bifenthrin (pyrethroid). During all stages, we will be using a cold light lamp to adapt the microorganism to sunlight.

[3] = test system: Trichoderma harzianum
Description: as §2, §3
Procedures begin with the conditions in its natural habitat: Humidity: 30 to 40% and humidity is increased up to 70% and a Temperature from 28 to 30° C., maintained during all the research term. pH from 7.0 to 7.5. These conditions are the starting point to adapt the strain to thiodicarb and bifenthrin.

[4] = test system: Metarhizium anisopliae; settings: for Resistant to: FINAL: final development characteristics
Description: as §2, §1

[5] = stages E-33 and E-34, 0.9 LD (0.00016 gr)
[6] = stages E-35 and E-36, 1 LD (0.00018 gr)
[7] = stages E-3 and E-4, 0.2 LD (0.000035 gr)
[8] = stages E-25 and E-26, 0.7 LD (0.00012 gr)
[9] = stages E-43 and E-44, 1.2 LD (0.00022 gr)
[10] = stages E-49 and E-50, 1.1 LD (0.00024 gr)
[11] = stages E-51 and E-52, 1.2 LD (0.00026 gr)

With `CS/C(C)=N\OC(=O)N(C)SN(C)C(=O)O/N=C(\C)SC` [thiodicarb] the mortality rate [1, 5] was 8%, the mortality rate [1, 6] was 15% and the “Resistant to: FINAL” value [2] was 1 LD of thiodicarb. The mortality rate ([2]; stages E-1 and E-2, 0.1 LD (0.0000175 gr), 32% humidity) was 73%, the mortality rate [2, 7] was 73-79% and the mortality rate [2, 8] was 23%. The mortality rate [2, 6] was 26%, the mortality rate [2, 9] was 20% and the mortality rate [2, 10] was 14%. The mortality rate [2, 11] was 11%, the mortality rate ([3]; stage E-1, 0.1 LD (0.0000175 gr), until day 68 of incubation) was 82% and the mortality rate ([3]; stage E-2, 0.1 LD (0.0000175 gr)) was 85%. It also gave a mortality rate ([3]; stages E-11 and E-12, 0.4 LD (0.000070 gr)) of 75%, a mortality rate ([3]; stages E-19 and E-20, 0.6 LD (0.00011 gr)) of 66% and a mortality rate [3, 8] of 60%. The mortality rate [3, 9] was 18%, the mortality rate [3, 10] was 10% and the mortality rate [3, 11] was 8%. For the same molecule, the “Resistant to: FINAL” value [4] was 1.3 LD of, the mortality rate [4, 7] was 55% and the mortality rate [4, 5] was 15%. The mortality rate [4, 6] was 15%.
With `Cc1c(COC(=O)[C@@H]2[C@H](/C=C(\Cl)C(F)(F)F)C2(C)C)cccc1-c1ccccc1` (racemic) [bifenthrin, 2-methyl biphenyl-3-ilmetil(2)-(1RS,3RS)-3-(2-chlorine 3,3,3-trifluoropropene)-2,2-dimethyl-cyclo-propane-carboxylate] the “Resistant to: FINAL” value [2] was 1 LD of thiodicarb and the “Resistant to: FINAL” value [4] was 1.3 LD of.
